Several values for one entry are separate records, joined by “and”; a condition that tells them apart may be missing. Equal entries are not always repeated.
What was measured:
[1] = In vitro stability in mouse serum (HPLC); assay type: in vitro ADME; settings: 37 °C, normalized to 0 h, n = 3
Procedure: (§1) Stability of the ^55Co-labeled folates was monitored over a period of 24 h in phosphate buffered saline (PBS) and mouse serum, to monitor the stability of a dose prior to injection (for potential shipment to a PET center) and match the longest biodistribution time point, respectively. The percentage of the intact complex was monitored at 1 h, 4 h, and 24 h via radio-TLC (PBS) or HPLC (mouse serum). […] In PBS, both radioconjugates retained 93% or greater stability at 24 h. […] As a control, one group of replicate serum tubes contained only [^55Co]CoCl2. […] Therefore, the peak corresponding to free [^55Co]CoCl2 (tR = 2.2 min) was used to determine the overall serum stability of the ^55Co-labeled chelates, which was approximately 95% for each compound at 24 h.
(§2) The ^55Co-labeled folate derivatives were diluted 10-fold in 10 mM PBS (pH = 7.4) or whole mouse serum (EMD Millipore, Burlington, MA) in 1.5 mL centrifuge tubes to final volumes of 100 μL. The tubes were incubated at 37 °C with vortexing at 900 rpm using an Eppendorf ThermoMixer C (Eppendorf, Hamburg, Germany) equipped with a 1.5 mL heating block. In the case of PBS stability, three replicate tubes were prepared with average final activity concentrations of 37 kBq (1 μCi) [^55Co]Co-cm10/μL or 37 kBq (1 μCi) [^55Co]Co-rf42/μL, and the final concentrations of precursor were 0.07 mM of cm10 or rf42. The percent of the intact complex was determined by analyzing 1 μL aliquots of each solution by radio-TLC at 1 h, 4 h and 24 h. For mouse serum stability, three replicate tubes were prepared for each time point for each complex. The final average activity concentrations were 11.1 kBq (0.3 μCi) [^55Co]Co-cm10/μL and 7.4 kBq (0.2 μCi) [^55Co]Co-rf42/μL and 0.02 mM final folate concentration. A control sample was prepared for each time point that contained an average of 10.4 kBq/μL of [^55Co]CoCl2. At each time point, 300 μL of ACN was added to each tube to precipitate serum proteins. The tubes were centrifuged at 4500 rpm for 5 min using a benchtop microcentrifuge (Eppendorf, Hamburg, Germany) and the supernatants collected. The pellets were washed once more, and the supernatants were collected and combined with the first ACN wash. The activities in the pellets and supernatants were determined using a 2480 Wizard2 Automatic Gamma Counter (Perkin Elmer, Waltham, MA, USA) to determine the amount of activity associated with the protein pellet. To determine the percentage of intact complex, the supernatant was diluted 2-fold with water, and 100 μL of this mixture was injected into the HPLC.

[2] = In vitro stability in PBS (radio-TLC); assay type: physicochemical; settings: 37 °C, normalized to 0 h, n = 3
Procedure: as §1, §2

Compound | percent intact complex, mouse serum ([1]; 1 h) [%] | percent intact complex, mouse serum ([1]; 4 h) [%] | percent intact complex, mouse serum ([1]; 24 h) | percent intact complex, PBS ([2]; 1 h) [%] | percent intact complex, PBS ([2]; 4 h) [%] | percent intact complex, PBS ([2]; 24 h)
Nc1nc2ncc(CNc3ccc(C(=O)N[C@@H](CCC(=O)NC(CCCCNC(=O)CN4CCN(CC(=O)O)CCN(CC(=O)O)CCN(CC(=O)O)CC4)C(=O)NC(CCCCNC(=O)CCCc4ccc(I)cc4)C(=O)O)C(=O)O)cc3)nc2c(=O)[nH]1.[55Co] (stereo partly drawn) [[^55Co]Co-cm10] | 98 ± 1 | 97.8 ± 0.6 | 94% and 95 ± 1% | 97 ± 2 | 95 ± 1 | 93% and 93.4 ± 0.3%
Nc1nc2ncc(CNc3ccc(C(=O)N[C@@H](CCC(=O)NC(CCCCNC(=O)CCC(C(=O)O)N4CCN(CC(=O)O)CCN(CC(=O)O)CC4)C(=O)NC(CCCCNC(=O)CCCc4ccc(I)cc4)C(=O)O)C(=O)O)cc3)nc2c(=O)[nH]1.[55Co] (stereo partly drawn) [[^55Co]Co-rf42] | 97.5 ± 0.5 | 97.2 ± 0.4 | 94% and 94.6 ± 0.6% | 98 ± 2 | 95.6 ± 0.9 | 93% and 93 ± 3%
